Broadly, the logD is the decadic logarithm of the distribution of all forms, ionised or not, between an organic phase and buffer at a given pH. Higher therefore signals higher lipophilicity.

This data set can be described thus: physchem. The settings on record: octan-1-ol/water, pH 7.4, LogD7.4.
Take `C#CCN(c1cc(Nc2ccc(OCC(O)CN(C)C)cc2)ncn1)c1cc(Cl)ccc1Cl` (stereo not drawn): the logD was 2.8.
`CN(C)CC(O)COc1ccc(Nc2nccc(Nc3cc(Cl)ccc3Cl)n2)cc1` (stereo not drawn): the pH-dependent lipophilicity (logD) is 2.9.
In the case of `O=C(O)CC[C@@H]1c2ccccc2C[C@H]1NC(=O)c1cc2sc(Cl)c(Cl)c2[nH]1`, the logD turned out to be 2.84.
Regarding `Brc1cc(Br)cc(COC[C@H](c2ccccc2)N2CCNCC2)c1`, the logD came to 2.8.
Regarding `FC(F)(F)c1cc(COCC(c2ccccc2)N2CCNCC2)cc(C(F)(F)F)c1` (stereo not drawn), the logD amounted to 2.9.
`CC(C)C(NC(=O)Cn1c(C2CCCCC2)ncc(NC(=O)OCc2ccccc2)c1=O)C(=O)C(F)(F)F` (stereo not drawn) gave a log distribution coefficient (logD) of 2.87.
For the molecule `O=S(=O)(Cc1ccccc1)NCC(c1ccccc1)N1CCCCCC1` (stereo not drawn), the logD came out at 2.83.
Molecule `O=S(=O)(NCC(c1ccccc1)N1CCCCCC1)c1ccc(F)c(F)c1` (stereo not drawn) came in with a logD of 2.84.
`N#Cc1ccc(S(=O)(=O)NCC(c2ccccc2)N2CCCCCC2)cc1` (stereo not drawn) had a logD of 2.86.
For the molecule `Cc1cc2n[nH]c(=O)n2c2cc(-c3ccc(C(=O)N4CCOCC4)cc3)ccc12`, the logD came to 2.77.
`Cc1cc2n[nH]c(=O)n2c2cc(-c3ccc(CO)cc3)ccc12` displayed a logD of 2.86.
As for `Cc1c(-c2ccc(O)cc2)c(=O)oc2cc(O)ccc12`, the figure is 2.8; as for `CS(=O)(=O)c1cccc(Nc2nccc(Nc3cccc4ocnc34)n2)c1`, 2.9; as for `NC(=O)c1cnc(N[C@H]2CCCNC2)c2cc(-c3ccc(F)c(Cl)c3)sc12`, 2.94.
Molecule `CC1(c2ccc(Cl)cc2)CCN(C(=O)COCc2ccncc2)CC1` yielded a logD of 2.79.
`COc1ccc(-c2coc3cc(O)cc(O)c3c2=O)cc1OC`: the pH-dependent lipophilicity (logD) was determined as 2.8.
`NC(=O)c1sc2nccc(Nc3ccccc3)c2c1N` gave a logD of 2.91.
`CC(O)(C(=O)Nc1ccc(S(=O)(=O)c2ccc(O)cc2)cc1)C(F)(F)F` (stereo not drawn) yielded a pH-dependent lipophilicity (logD) of 2.78.
`COc1ccc(Cn2c(=O)[nH]c3c(=O)n(CC(=O)NC(C(=O)C(F)(F)F)C(C)C)c(-c4ccccc4)cc3c2=O)cc1` (stereo not drawn) yielded a log distribution coefficient (logD) of 2.93.
`COc1ccccc1C(=O)Nc1nc2ccccc2[nH]1` showed a logD of 2.9.
For `CSc1ncccc1C(=O)NCC1CCCCC1`, the log distribution coefficient (logD) was determined as 2.93.
Regarding `Cc1ccc(S(=O)(=O)Nc2ccc(/C=C/C(=O)Nc3ccccc3N)cc2)cc1`, the pH-dependent lipophilicity (logD) was found to be 2.82.
In the case of `Cc1cc(Nc2ncc(F)c(N[C@H]3[C@@H](C(N)=O)[C@@H]4C=C[C@H]3C4)n2)ccc1N1CCN(C)CC1`, the logD was determined as 2.9.
With `O=c1ccnc2cc(C#Cc3ccccc3)ccn12`, the log distribution coefficient (logD) came out at 2.9.
For the molecule `N#Cc1cccc(COc2ccc3c(c2)OCCC3=O)c1`, the logD came out at 2.8.
Molecule `CC(=O)N1CCOc2cc(COc3ccccc3)cnc21` registered a log distribution coefficient (logD) of 2.8.
As for `CC[C@H](NC(=O)c1c([S+](C)[O-])c(-c2ccccc2)nc2c(F)cccc12)c1ccccc1` (stereo partly drawn), the figure is 2.84; as for `Nc1ccc2c(c1)C(=O)c1ccccc1-2`, 2.9; as for `c1ccc(-c2cn3ccccc3n2)cc1`, 2.9.
`O=c1oc2c(O)cccc2cc1-c1ccc(O)cc1` came in with a logD of 2.8.
In the case of `CCCC(=O)NCc1cncc(-c2ccc(F)cc2OC)c1`, the logD was 2.9.
`COc1cc(F)ccc1-c1cncc(CNC(=O)C2CC2)c1` yielded a logD of 2.9.
As for `CN(CC[C@@H](Oc1ccc(-c2ccccc2)cc1)c1ccc(F)cc1)CC(=O)O`, the figure is 2.86; as for `CS(=O)(=O)c1ccc(CC(=O)N(C2CC2)C2CCN(CCC(c3ccccc3)c3ccccc3)CC2)cc1`, 2.89.
For the molecule `CC(=O)Nc1ccc(CC(=O)N(C)C2CCN(CCC(c3ccccc3)c3ccccc3)CC2)cc1`, the log distribution coefficient (logD) stood at 2.9.
The molecule `O=C(Nc1ccccc1)c1cc(Cl)ccc1O` displayed a logD of 2.9.
In turn, `O=c1oc2cc(O)ccc2cc1-c1ccc(O)cc1` registered a logD of 2.9.
Take `O=S(=O)(Nc1cc(F)ccc1F)c1ccc(Cl)cc1`: the log distribution coefficient (logD) was 2.9.
The same measure for `Cc1cccc(Cn2ccn3c(=O)cc(N4CCOCC4)nc23)c1`: 2.8.
In turn, `CCCCCSc1nc2nc(N)sc2c(=O)[nH]1` came in with a logD of 2.86.
Regarding `O=C(Nc1ccc(N2CCOCC2)nc1)c1nnc(Nc2ccc(F)c(F)c2)o1`, the logD came to 2.9.
Molecule `Cc1ccc(-c2c[nH]cn2)cc1NC(=O)c1ccc(OCc2ccccn2)cc1` had a logD of 2.81.
As for `Cc1ccc(-c2nccn2C)cc1NC(=O)c1ccc(OCc2ccccn2)cc1`, the logD amounted to 2.83.
In turn, `Cc1ccc(-c2[nH]cnc2C)cc1NC(=O)c1ccc(OCc2ccccn2)cc1` yielded a logD of 2.87.
Turning to `CC(=O)N(C)c1ccc2ccn(-c3cc(NC4CC4)n4ncc(C#N)c4n3)c2c1`, the pH-dependent lipophilicity (logD) was determined as 2.9.
`CC(=O)Nc1ccc2c(c1)c(-c1cc(NC3CC3)n3ncc(C#N)c3n1)cn2C` came in with a logD of 2.94.
Regarding `C[C@@H]1CN(c2noc(C(F)F)n2)CCN1c1ncc(OCc2ccncc2C#N)cn1`, the pH-dependent lipophilicity (logD) stood at 2.85.
As for `CCn1c(=O)c2c(-c3cncn3C)n(Cc3ccnc4ccc(Cl)cc34)nc2n(CC2CC2)c1=O`, the figure is 2.87; as for `Cc1cc(Nc2nc(NCc3ccccn3)ncc2Br)n[nH]1`, 2.8.
Molecule `COc1ccc(NC(=O)CSc2nnc(C)n2-c2ccc(C)cc2)cc1` gave a log distribution coefficient (logD) of 2.94.
As for `O=C(NS(=O)(=O)c1cccc(C(F)(F)F)c1)N1CCC(N2CCC(Oc3ccc(Cl)c(Cl)c3)CC2)CC1`, the logD came out at 2.94.
The same measure for `Nc1ncc(-c2ccc(S(=O)(=O)N3CCOCC3)cc2)nc1C(=O)Nc1cccnc1`: 2.83; for `CCc1cc(O)c(Oc2ccc(C(N)=O)cc2F)cc1F`: 2.87.
`CC(C)Cn1c(=O)n(C)c(=O)c2c(C(=O)N3CC[C@@H](O)C3)c(Oc3cccc4ccccc34)sc21` yielded a logD of 2.87.
For `CNS(=O)(=O)c1ccc2c(C(=O)NC[C@@H](O)CN3CCC(Oc4ccc(Cl)c(Cl)c4)CC3)c[nH]c(=O)c2c1`, the pH-dependent lipophilicity (logD) stood at 2.77.
Consider `Cc1c(Cl)ccc(OC2CCN(C[C@H](O)CNC(=O)c3c[nH]c(=O)c4cc(S(C)(=O)=O)ccc34)CC2)c1Cl`, for which the logD was found to be 2.83.
As for `CS(=O)(=O)c1ccc(C(=O)NC[C@@H](O)CN2CCC(Oc3ccc(Cl)c(Cl)c3)CC2)s1`, the logD was determined as 2.86.
In turn, `Nc1cccc(CCc2ccc3cc[nH]c3c2)n1` came in with a log distribution coefficient (logD) of 2.8.
Regarding `CNc1cc(C(=O)Nc2ccc(N3CCOCC3)cc2)nc2c(N3CCN(C)CC3)cc(OC)cc12`, the log distribution coefficient (logD) is 2.93.
`COCCC(=O)Nc1ccc(Nc2ncc3cc(-c4ccncc4)ccc3n2)cc1` showed a logD of 2.78.
For the molecule `CC(=O)N(C)c1ccc(Nc2ncc3cc(-c4ccncc4)ccc3n2)cc1`, the logD came to 2.88.
Take `COc1ccc(-c2ccc3c(N4CCOC[C@@H]4C)nc(N4CCOC[C@@H]4C)nc3n2)cc1C(N)=O`: the pH-dependent lipophilicity (logD) came out at 2.82.
As for `CC(C)C[C@H](CO)Nc1nc(SCc2ccncc2)nc2nc(N)sc12`, the figure is 2.9.
Consider `CCOC(=O)[C@H](Cc1ccc([N+](=O)[O-])cc1)NC(=O)c1ccccc1`, for which the logD was 2.79.
As to `CN1CCc2c1nc1ccccc1c2NC(=O)Cc1ccccc1`, the logD stood at 2.8.
As for `O=C1C(=O)c2cc(-c3ccccc3F)ccc2-c2ccccc21`, the figure is 2.92; as for `COc1ccc(OC(F)(F)F)cc1CN[C@H]1CCCN[C@H]1c1ccccc1`, 2.9.
Regarding `CC(C)C(NC(=O)Cn1c(-c2ccccc2)ccc(NC(=O)NCc2cccnc2)c1=O)C(=O)C(F)(F)F` (stereo not drawn), the logD is 2.84.
`CNC(=O)C1(N2CCCCC2=O)CCN(CC[C@H](CN(C)C(=O)c2c(OC)c(C#N)cc3ccccc23)c2ccc(Cl)c(Cl)c2)CC1` showed a log distribution coefficient (logD) of 2.78.
The same measure for `CCCc1c(OCc2ccc(-c3nn[nH]n3)cc2OC)ccc(C(C)=O)c1O`: 2.8; for `Cc1ccc(NC(=O)c2cccc(N(C)C)c2)cc1NC(=O)c1ccc(OCc2ccccn2)cc1`: 2.83; for `O=[N+]([O-])c1ccc2[nH]c(-c3ccccn3)nc2c1`: 2.8.
`C[C@@H](O)[C@@H](CO)Nc1nc(SCc2cccc(F)c2F)nc2nc(N)sc12` returned a logD of 2.83.
`O=C(NC1Cc2ccccc2N(CC(=O)N2CCC(O)CC2)C1=O)c1cc2cc(Cl)sc2[nH]1` (stereo not drawn) yielded a pH-dependent lipophilicity (logD) of 2.86.
Molecule `CC(=O)NC[C@H]1CN(c2ccc(N3Cc4cccnc4C3)c(F)c2)C(=O)O1` gave a logD of 2.88.
For `COc1cc2ncc(C(N)=O)c(Nc3ccccc3Cl)c2cc1OC`, the pH-dependent lipophilicity (logD) worked out at 2.89.
Molecule `CC(C)C[C@@H](CO)NS(=O)(=O)c1ccc(Cl)s1` returned a log distribution coefficient (logD) of 2.8.
On to `Cc1ncc(-c2nc(Nc3ccc(C(=O)N(C)C)cc3)ncc2F)n1C(C)C`, for which the logD stood at 2.77.
Turning to `Cc1ncc(-c2ccnc(Nc3ccc(C(N)=O)c(F)c3)n2)n1C(C)C`, the logD was determined as 2.8.
In the case of `COc1cc2ncc(C(N)=O)c(Nc3cc(F)ccc3F)c2cc1OC`, the log distribution coefficient (logD) came to 2.9.
`O=c1oc2ccc(O)cc2cc1-c1ccc(O)cc1` had a logD of 2.9.
In turn, `COC(=O)CCCCCCC(=O)Nc1ccc2c(c1)C(=O)C(=O)c1ccccc1-2` registered a logD of 2.9.
As for `Cc1cc(Nc2ncc(F)c(-c3cnc(C)n3C(C)C)n2)ccc1C(=O)N(C)C`, the figure is 2.86; as for `CCCC(=O)Nc1ccc2c(c1)C(=O)C(=O)c1ccccc1-2`, 2.81.
The molecule `CC(C)(C)C(=O)Nc1ccc2c(c1)C(=O)C(=O)c1ccccc1-2` registered a pH-dependent lipophilicity (logD) of 2.83.
In the case of `Cc1ccc(NC(=O)c2cccc(OCC(C)C)c2)cc1C(=O)Nc1cccnc1`, the log distribution coefficient (logD) amounted to 2.81.
The same measure for `COc1cc2ncc(C(N)=O)c(Nc3ccc(F)cc3)c2cc1OC`: 2.82; for `CC(C)(C)NC(=O)[C@@H]1CN(Cc2cccnc2)CCN1C[C@@H](O)C[C@@H](Cc1ccccc1)C(=O)N[C@H]1c2ccccc2C[C@H]1O`: 2.9; for `CS(=O)(=O)c1ccc(C(CCNC(=O)c2ccc(C#N)cc2)c2ccc(F)cc2)cc1` (stereo not drawn): 2.9.
On to `CCCCC(NC(=O)CC1CCN(Cc2ccn(-c3ccc(C(F)(F)F)cc3)c2)CC1)c1ccc(=O)[nH]c1` (stereo not drawn), for which the pH-dependent lipophilicity (logD) was determined as 2.89.
For `CN1CCN(c2nc(NCCNc3ccc([N+](=O)[O-])cc3)c3ccccc3n2)CC1`, the pH-dependent lipophilicity (logD) stood at 2.91.
As for `CN(Cc1ccc(Cl)cc1)C(=O)C1(N)CCN(c2ncnc3[nH]ccc23)CC1`, the figure is 2.8; as for `CN(C)CC1CCn2c(c(C3=C(c4cn(C)c5ccccc45)C(=O)NC3=O)c3ccccc32)C1` (stereo not drawn), 2.88.

Values taken from ChEMBL document CHEMBL3301361, “Experimental in vitro DMPK and physicochemical data on a set of publicly disclosed compounds”.
